The values below are quoted from earlier work in patent US7670624B2, “Gastrointestinal-specific multiple drug release system” (Astella Pharma Inc., priority 2004, dated 2010).

Where a name gives a salt, the structure may show the parent alone.

The conditions of this series: in vivo.

Consider `NC(N)=Nc1nc(CSCCC(N)=NS(N)(=O)=O)cs1` [Famotidine], for which the t1/2 is 3 h.
Take `CN(C)c1ccc(O)c2c1C[C@H]1C[C@H]3[C@H](N(C)C)C(O)=C(C(N)=O)C(=O)[C@@]3(O)C(O)=C1C2=O` [Minocycline hydrochloride]: the t1/2 is 9.5 h.
